Test results: patent US20260232827A1, “ANTIBODY-DRUG CONJUGATES TARGETING NAPI2B AND METHODS OF USE” (Zymeworks BC Inc., priority 2023, published 2026)

How the values were obtained:
[1] = test system: Construct 5 (chimeric human NaPi2b, region 304-348); experiment: Binding region mapping, flow cytometry on transfected HEK293-6e cells; settings: 24 hours at 4° C.
Protocol: (§1) Following incubation and washing, fluorescence was detected by flow cytometry on a BD LSRFortessa™ Cell Analyzer (BD Biosciences, Franklin Lake, NJ) with 1,000 minimum events collected per well.

human NaPi2b = biological target: T1, human NaPi2b (Homo sapiens, UniProt O95436); experiment: Flow cytometry binding to transfected HEK293-6e cells; settings: huNaPi2b (full length human NaPi2b), 24 hours at 4° C.
T1 construct: Full length human NaPi2b; host or cells: HEK293-6e
T1 sequence (O95436 1-690): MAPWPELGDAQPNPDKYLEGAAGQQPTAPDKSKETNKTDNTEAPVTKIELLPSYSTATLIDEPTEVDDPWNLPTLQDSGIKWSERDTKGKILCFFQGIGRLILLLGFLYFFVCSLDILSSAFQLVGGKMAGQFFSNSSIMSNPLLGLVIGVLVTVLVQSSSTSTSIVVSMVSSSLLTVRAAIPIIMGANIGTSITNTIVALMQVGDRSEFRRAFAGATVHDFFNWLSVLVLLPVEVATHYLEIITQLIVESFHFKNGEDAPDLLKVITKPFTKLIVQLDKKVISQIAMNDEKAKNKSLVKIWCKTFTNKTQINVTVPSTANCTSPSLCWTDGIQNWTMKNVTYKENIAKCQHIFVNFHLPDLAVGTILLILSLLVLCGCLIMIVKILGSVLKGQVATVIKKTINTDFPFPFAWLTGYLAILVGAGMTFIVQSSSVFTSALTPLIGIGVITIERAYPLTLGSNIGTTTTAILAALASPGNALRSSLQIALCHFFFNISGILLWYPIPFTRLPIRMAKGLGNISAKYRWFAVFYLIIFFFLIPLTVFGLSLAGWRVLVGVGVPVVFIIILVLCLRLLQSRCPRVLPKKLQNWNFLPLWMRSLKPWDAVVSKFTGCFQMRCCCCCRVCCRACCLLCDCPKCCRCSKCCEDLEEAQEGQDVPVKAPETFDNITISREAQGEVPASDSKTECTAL
Protocol: The binding cross-reactivity of humanized antibody variant v29456 to human, cynomolgus and mouse NaPi2b was assessed by flow cytometry using HEK293-6e transfected cells.
Following staining and washing, fluorescence was detected by flow cytometry on BD LSRFortessa™ Cell Analyzer (BD Biosciences, Franklin Lake, NJ) with 10,000 minimum events collected per well. The AF647/APC-A GeoMean (fluorescence signal geometric mean, proportional to anti-Human AF647 binding) was calculated for the live singlet cell population for each primary antibody using FlowJo™ v8 software (BD Biosciences, Franklin Lake, NJ). The Bmax and Kd of each primary antibody were calculated using GraphPad Prism Version 9 (GraphPad Software, San Diego, CA)
as §1, §1, §1

Substance: palivizumab [palivizumab (v21995)]
- Background-Subtracted AF647 Mean Fluorescence Intensity ([1]; antibody 2.0 nM): -2
- Background-Subtracted AF647 Mean Fluorescence Intensity ([1]; antibody 20.0 nM): 123
- Background-Subtracted AF647 Mean Fluorescence Intensity ([1]; antibody 200.0 nM): 40
- Background-Subtracted AF647 Mean Fluorescence Intensity (human NaPi2b; antibody 2.0 nM): -22
- Background-Subtracted AF647 Mean Fluorescence Intensity (human NaPi2b; antibody 20.0 nM): 13
- Background-Subtracted AF647 Mean Fluorescence Intensity (human NaPi2b; antibody 200.0 nM): 19
